Measurements reported in ChEMBL document CHEMBL4342450, “Antitumor Activity of Ohmyungsamycin A through the Regulation of the Skp2-p27 Axis and MCM4 in Human Colorectal Cancer Cells” (J Nat Prod, 2020).
The source made the active and inactive calls. The calls are words filed in the database; no cut-off is given here. *1 amine or outer side, *2 acyl side, *3 side chain or, on linkers, in order; H or OH if unused. Where a SMILES comes first, the peptide text is derived from it. Bridges are numbered along the chain shown (N, C = ends). [ ]: non-standard residue; d: D form. Phe(3R-OH) = O=C([C@@H](N[*:1])[C@H](O[*:3])c1ccccc1)[*:2]; NMeTrp(4-OMe) = CN[C@@H](Cc1c[nH]c2cccc(OC)c12)C(=O)O; NMeT = CN[C@H](C(=O)O)[C@@H](C)O; NMeL = CN[C@@H](CC(C)C)C(=O)O; NMeV = CN[C@H](C(=O)O)C(C)C

Tests used:
[1] = tested on: HCT-116; assay: Downregulation of cyclin E2 mRNA expression in human HCT116 cells after 12 hrs by RT-PCR method; format: functional, cell-based
[2] = tested on: HCT-116; assay: Induction of cell cycle arrest in human HCT116 cells assessed as accumulation at S phase at 20 uM incubated for 18 hrs by propidium iodide staining based flow cytometry (reference value: 26.8%); format: functional
[3] = tested on: HCT-116; assay: Downregulation of CDCA7 gene expression in human HCT116 cells assessed as fold change at 15 uM incubated for 24 hrs by cDNA microarray analysis relative to control; format: functional
[4] = tested on: Mus musculus; assay: In vivo modulation of Skp2-p27 axis in tumor of BALB/c nude mouse xenografted with human HCT116 cells assessed as downregulation of Skp2 mRNA level at 5 to 10 m/kg, ip administered thrice a week for 3.5 weeks by RT-PCR method; format: functional, organism-based
[5] = tested on: HCT-116; assay: Downregulation of INSIG1 gene expression in human HCT116 cells assessed as fold change at 15 uM incubated for 24 hrs by cDNA microarray analysis relative to control; format: functional
[6] = tested on: HCT-116; assay: Downregulation of SCARA3 gene expression in human HCT116 cells assessed as fold change at 15 uM incubated for 24 hrs by cDNA microarray analysis relative to control; format: functional
[7] = tested on: HCT-116; assay: Downregulation of MCM4 protein expression in human HCT116 cells at 5 to 20 uM after 24 hrs by Western blot analysis; format: functional, cell-based
[8] = tested on: HCT-116; assay: Induction of cell cycle arrest in human HCT116 cells assessed as accumulation at G2/M phase at 10 uM incubated for 24 hrs by propidium iodide staining based flow cytometry (reference value: 15.7%); format: functional
[9] = tested on: MRC5; assay: Antiproliferative activity against human MRC5 cells after 72 hrs by sulforhodamine B assay; format: cell-based; conditions: MRC5, 72 h
[10] = tested on: HCT-116; assay: Induction of cell cycle arrest in human HCT116 cells assessed as accumulation at G0/G1 phase incubated for 18 hrs by propidium iodide staining based flow cytometry; format: functional
[11] = tested on: HCT-116; assay: Decrease in cell cycle associated protein expression in human HCT116 cells assessed as reduction in cyclin D1 expression at 5 to 20 uM after 24 hrs by Western blot analysis; format: functional, cell-based
[12] = tested on: HCT-116; assay: Induction of cell cycle arrest in human HCT116 cells assessed as accumulation at S phase at 10 uM incubated for 24 hrs by propidium iodide staining based flow cytometry (reference value: 21.2%); format: functional
[13] = tested on: HCT-116; assay: Induction of cell cycle arrest in human HCT116 cells assessed as accumulation at G2/M phase at 20 uM incubated for 18 hrs by propidium iodide staining based flow cytometry (reference value: 25.1%); format: functional
[14] = tested on: HCT-116; assay: Downregulation of DSCC1 gene expression in human HCT116 cells assessed as fold change at 15 uM incubated for 24 hrs by cDNA microarray analysis relative to control; format: functional
[15] = tested on: SNU-638; assay: Antiproliferative activity against human SNU638 cells after 72 hrs by sulforhodamine B assay; format: functional, cell-based; conditions: SNU-638, 72 h
[16] = tested on: HCT-116; assay: Downregulation of KITLG gene expression in human HCT116 cells assessed as fold change at 15 uM incubated for 24 hrs by cDNA microarray analysis relative to control; format: functional
[17] = tested on: HCT-116; assay: Downregulation of PEG10 gene expression in human HCT116 cells assessed as fold change at 15 uM incubated for 24 hrs by cDNA microarray analysis relative to control; format: functional
[18] = tested on: HCT-116; assay: Downregulation of CYP24A1 gene expression in human HCT116 cells assessed as fold change at 15 uM incubated for 24 hrs by cDNA microarray analysis relative to control; format: functional
[19] = tested on: Mus musculus; assay: In vivo modulation of MCM4 in tumor of BALB/c nude mouse xenografted with human HCT116 cells assessed as downregulation of MCM4 level at 5 to 10 m/kg, ip administered thrice a week for 3.5 weeks by Western blot analysis; format: functional, organism-based
[20] = tested on: Mus musculus; assay: In vivo modulation of Skp2-p27 axis in tumor of BALB/c nude mouse xenografted with human HCT116 cells assessed as downregulation of Skp2 level at 5 to 10 m/kg, ip administered thrice a week for 3.5 weeks by Western blot analysis; format: functional, organism-based
[21] = tested on: Mus musculus; assay: In vivo modulation of Skp2-p27 axis in tumor of BALB/c mouse xenografted with human HCT116 cells assessed as upregulation of p27 mRNA level at 5 to 10 m/kg, ip administered thrice a week for 3.5 weeks by RT-PCR method; format: functional, organism-based
[22] = tested on: HCT-116; assay: Downregulation of FAM111B gene expression in human HCT116 cells assessed as fold change at 15 uM incubated for 24 hrs by cDNA microarray analysis relative to control; format: functional
[23] = tested on: HCT-116; assay: Induction of cell cycle arrest in human HCT116 cells assessed as accumulation at sub-G1 phase at 20 uM incubated for 18 hrs by propidium iodide staining based flow cytometry (reference value: 0.9%); format: functional
[24] = tested on: HCT-116; assay: Downregulation of BMP4 gene expression in human HCT116 cells assessed as fold change at 15 uM incubated for 24 hrs by cDNA microarray analysis relative to control; format: functional
[25] = tested on: HCT-116; assay: Modulation of Skp2-p27 Axis in human HCT116 cells assessed as downregulation of Skp2 expression at 5 to 20 uM after 24 hrs by Western blot analysis; format: functional, cell-based
[26] = tested on: HCT-116; assay: Induction of apoptosis in human HCT116 cells assessed as increase in cleaved PARP level at 20 uM after 24 hrs by Western blot analysis; format: functional, cell-based
[27] = tested on: HCT-116; assay: Downregulation of HIST1H2BM gene expression in human HCT116 cells assessed as fold change at 15 uM incubated for 24 hrs by cDNA microarray analysis relative to control; format: functional
[28] = tested on: HCT-116; assay: Induction of cell cycle arrest in human HCT116 cells assessed as accumulation at sub-G1 phase at 10 uM incubated for 24 hrs by propidium iodide staining based flow cytometry (reference value: 4.8%); format: functional
[29] = tested on: HCT-116; assay: Downregulation of SKP2 gene expression in human HCT116 cells assessed as fold change at 15 uM incubated for 24 hrs by cDNA microarray analysis relative to control; format: functional
[30] = tested on: HCT-116; assay: Downregulation of CCNE2 gene expression in human HCT116 cells assessed as fold change at 15 uM incubated for 24 hrs by cDNA microarray analysis relative to control; format: functional
[31] = tested on: HCT-116; assay: Induction of morphological changes in human HCT116 cells assessed as appearance of pin-point shape cells at 4 to 20 uM by inverted phase-contrast microscopic method; format: functional, cell-based
[32] = tested on: HCT-116; assay: Modulation of Skp2-p27 Axis in human HCT116 cells assessed as upregulation of p27 expression after 24 hrs by Western blot analysis; format: functional, cell-based
[33] = tested on: HCT-116; assay: Induction of cell cycle arrest in human HCT116 cells assessed as accumulation at G0/G1 phase at 20 uM incubated for 18 hrs by propidium iodide staining based flow cytometry (reference value: 43.3%); format: functional
[34] = tested on: HCT-116; assay: Antitumor activity against human HCT116 cells xenografted in BALB/c nude mouse assessed as reduction in tumor volume at 5 to 10 mg/kg, ip administered thrice a week for 3.5 weeks and measured […] by caliper method; format: functional, organism-based
[35] = tested on: SK-HEP1; assay: Antiproliferative activity against human SKHEP1 cells after 72 hrs by sulforhodamine B assay; format: functional, cell-based; conditions: SK-HEP1, 72 h

How did the inhibition [1] turn out when `CN[C@H](C(=O)N[C@H](C(=O)N[C@@H]1C(=O)N(C)[C@@H]([C@@H](C)O)C(=O)N[C@@H](C(C)C)C(=O)N(C)[C@@H](CC(C)C)C(=O)N[C@@H](C(C)C)C(=O)N(C)[C@@H](C(C)C)C(=O)N(C)[C@@H](Cc2c[nH]c3cccc(OC)c23)C(=O)N[C@@H](C(C)C)C(=O)N[C@@H]([C@H](O)c2ccccc2)C(=O)N[C@@H](C(C)C)C(=O)O[C@@H]1C)C(C)C)C(C)C` (H-[NMeV]VT[NMeT]V[NMeL]V[NMeV][NMeTrp(4-OMe)]V[Phe(3R-OH)]V; ester 3-C) was run?
Its inhibition is “Dose-dependent effect”.

What about the Activity [2] of the same compound?
The Activity was 16%.

And the “fold change (FC)” value [3]?
Its value is 4.702.

What about the inhibition [4] of the same compound?
Its inhibition is “Active”.

What about the “fold change (FC)” value [5] of the same compound?
The value was 4.476.

What about the “fold change (FC)” value [6] of the same compound?
The value was 4.372.

What about the inhibition [7] of the same compound?
Its inhibition is “Active”.

What about the Activity [8] of the same compound?
The Activity was 16.1%.

What about the IC50 [9] of the same compound?
The IC50 was greater than 50 µM.

What about the Activity [10] of the same compound?
Its Activity is “Dose-dependent effect”.

What about the inhibition [11] of the same compound?
The inhibition was “Active”.

And the Activity [12]?
The Activity was 4.4%.

And the Activity [13]?
The Activity was 16.9%.

What about the “fold change (FC)” value [14] of the same compound?
The value was 4.856.

What about the IC50 [15] of the same compound?
The IC50 was 9.38 µM.

And the “fold change (FC)” value [16]?
Its value is 4.177.

And the “fold change (FC)” value [17]?
Its value is 4.917.

What about the “fold change (FC)” value [18] of the same compound?
Its value is 18.5.

And the inhibition [19]?
Its inhibition is “Active”.

And the inhibition [20]?
The inhibition was “Active”.

And the Activity [21]?
The Activity was “Active”.

What about the “fold change (FC)” value [22] of the same compound?
The value was 7.557.

What about the Activity [23] of the same compound?
The Activity was 7.1%.

What about the “fold change (FC)” value [24] of the same compound?
Its value is 4.773.

And the inhibition [25]?
The inhibition was “Active”.

And the Activity [26]?
The Activity was “Active”.

And the “fold change (FC)” value [27]?
Its value is 7.527.

And the Activity [28]?
Its Activity is 14.7%.

What about the “fold change (FC)” value [29] of the same compound?
Its value is 4.898.

And the “fold change (FC)” value [30]?
The value was 4.613.

What about the Activity [31] of the same compound?
Its Activity is “Active”.

What about the Activity [32] of the same compound?
Its Activity is “Dose-dependent effect”.

What about the Activity [33] of the same compound?
Its Activity is 55.4%.

What about the Activity [34] of the same compound?
Its Activity is “Active”.

What about the IC50 [35] of the same compound?
Its IC50 is 8.21 µM.
